Experimental data published in PubChem BioAssay (NCI).
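Growth conditions: 96-well plates. Treatment: test compound, 48 hours, 5 concentrations. Analysis: linear interpolation between bracketing concentrations; unreached endpoints set to highest concentration. TGI is the concentration that stops growth completely.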 Where a SMILES comes first, the peptide text is derived from it. [ ]: non-standard residue; d: D form. The star is where a group is joined. Tyr(3-Br) = N[C@@H](Cc1ccc(O)c(Br)c1)C(=O)O; Boc = CC(C)(C)OC(=O)*

Legend:
Test in all cases: NCI anticancer screen, dose series, 48 h
[1] = system: CCRF-CEM leukemia
[2] = system: HCT-15 colon
[3] = system: HT29 colon
[4] = system: IGROV1 ovarian
[5] = system: K-562 leukemia
[6] = system: MALME-3M melanoma
[7] = system: MDA-MB-435
[8] = system: MDA-N
[9] = system: MOLT-4 leukemia
[10] = system: NCI-H23 lung
[11] = system: OVCAR-5 ovarian
[12] = system: SW-620 colon

Row | Structure (SMILES) | TGI [1] | TGI [2] | TGI [3] | TGI [4] | TGI [5] | TGI [6] | TGI [7] | TGI [8] | TGI [9] | TGI [10] | TGI [11] | TGI [12]
1 | CN(C)CC1COC2Cc3ccccc3C1O2 (centres undefined) | > 100 µM | > 100 µM | > 100 µM | > 100 µM | > 100 µM | > 100 µM | > 100 µM | > 100 µM | > 100 µM | > 100 µM | > 100 µM | –
2 | C/C(=N\Nc1nc2ccccc2n1C)c1cnccn1 | 6.17 µM | > 100 µM | > 42.5 µM | – | > 100 µM | > 100 µM | > 100 µM | > 100 µM | > 100 µM | > 100 µM | > 100 µM | > 100 µM
3 | N#CC(C#N)=C(N)/C(C#N)=C/c1ccc2ccccc2n1 | > 100 µM | 80.1 µM | 35.9 µM | 38.2 µM | > 100 µM | > 100 µM | > 100 µM | > 100 µM | 97.9 µM | > 100 µM | > 100 µM | –
4 | CC(=O)Oc1cc2c(c3ncccc13)OC(C)(C)C2 | 28.7 µM | 46.5 µM | 36.9 µM | 12.4 µM | 23.4 µM | 23.4 µM | 24 µM | 10.9 µM | 29.9 µM | > 100 µM | 29 µM | > 100 µM
5 | CCCC(=O)O[C@H]1C=C2C[C@@]34SS[C@]5(CC6=C[C@H](OC(C)=O)[C@@H]7O[C@@H]7[C@H]6N5C3=O)C(=O)N4[C@@H]2[C@H]2O[C@H]21 | 8.41 µM | 1.43 µM | 0.0166 µM | 0.0499 µM | 5.83 µM | 0.0239 µM | 0.0241 µM | 0.0314 µM | 1.91 µM | 0.291 µM | 0.251 µM | 0.671 µM
6 | CC(C)(C)OC(=O)N(O)CCCn1cnc2c(N)ncnc21 | > 100 µM | > 100 µM | > 100 µM | > 100 µM | > 100 µM | > 100 µM | > 100 µM | > 100 µM | > 100 µM | > 100 µM | > 100 µM | > 100 µM
7 | COc1ccc(/C=C2\CCC(C)/C(=C\c3ccc(OC)c(OC)c3)C2=O)cc1OC (centres undefined) | 7.6 µM | 21.2 µM | 52.9 µM | 14.6 µM | 67.3 µM | 22 µM | > 100 µM | > 100 µM | 11.7 µM | 15.6 µM | 26.6 µM | > 100 µM
8 | CCOc1ccc(NC(=O)/C(=N\NC(C)(C)C)C2C(=O)Nc3ccccc3S2=O)cc1 (centres undefined) | > 100 µM | > 100 µM | > 100 µM | > 100 µM | > 100 µM | > 100 µM | > 100 µM | > 100 µM | > 100 µM | > 100 µM | > 100 µM | > 100 µM
9 | COc1ccc2c(c1)/C(=C\c1c(C)nc3sc(C)cn13)C(=O)N2 | 2.32 µM | 74.6 µM | 7.83 µM | 20.5 µM | > 100 µM | > 100 µM | 0.458 µM | 0.46 µM | > 83.8 µM | > 70.7 µM | 74.4 µM | > 100 µM
10 | OC[C@]1(n2nc3ccccc3n2)OC[C@@H]1c1ccccc1 | > 100 µM | > 100 µM | > 100 µM | > 100 µM | > 100 µM | > 100 µM | > 100 µM | > 100 µM | > 100 µM | > 100 µM | > 100 µM | –
11 | Oc1ccccc1C=Nc1ccc(-c2nc3ccccc3[nH]2)cc1 | 71.5 µM | > 100 µM | > 100 µM | > 100 µM | > 100 µM | > 100 µM | > 100 µM | > 100 µM | > 100 µM | > 100 µM | > 100 µM | > 100 µM
12 | CC(C)(C)c1cc2c(O)c(c1)Cc1cc(C(C#N)(Cc3ccc4ccccc4c3)Cc3ccc4ccccc4c3)cc(c1O)Cc1cc(C(C)(C)C)cc(c1O)Cc1cc(C(C#N)(Cc3ccc4ccccc4c3)Cc3ccc4ccccc4c3)cc(c1O)C2 | > 100 µM | > 100 µM | > 100 µM | > 100 µM | > 100 µM | > 100 µM | > 100 µM | > 100 µM | > 100 µM | > 100 µM | > 100 µM | > 100 µM
13 | Cc1ccc2c(n1)C(=O)C=CC2=O | > 22.4 µM | 26.3 µM | 38 µM | 29.3 µM | 18 µM | 16.8 µM | 33 µM | 20.3 µM | > 24 µM | 30.6 µM | 34.4 µM | 8.76 µM
14 | COC(=O)[C@H](Cc1ccc(O)c(Br)c1)NC(=O)[C@H](Cc1ccc(O)cc1)NC(=O)OC(C)(C)C (Boc-Tyr-[Tyr(3-Br)]-OMe) | 51.2 µM | 44 µM | > 100 µM | > 100 µM | > 100 µM | 57.2 µM | 53.5 µM | > 100 µM | > 100 µM | 71.5 µM | > 100 µM | > 100 µM
15 | COc1cc(NC(C)=O)ccc1C(=O)NN1C(=O)C(Cl)C1c1ccco1 (centres undefined) | > 100 µM | > 100 µM | > 100 µM | > 100 µM | > 100 µM | > 100 µM | > 100 µM | > 100 µM | > 100 µM | > 100 µM | > 100 µM | > 100 µM
16 | CCN(CC)CCN1C(=O)c2c(c(-c3ccccc3)c3ccccc3c2-c2ccccc2)C1=O | > 100 µM | > 100 µM | > 100 µM | > 100 µM | > 100 µM | > 100 µM | > 100 µM | > 100 µM | > 100 µM | – | > 100 µM | > 100 µM
17 | N#CC(=C1CCCCC1)c1nc2ccccc2o1 | > 100 µM | > 100 µM | > 100 µM | > 100 µM | > 100 µM | > 100 µM | > 100 µM | > 100 µM | > 100 µM | > 100 µM | > 100 µM | –
18 | O=C(/C=C1\C[C@H]2C=Nc3ccccc3C(=O)N2C1)NCCCCNC(=O)/C=C1\C[C@H]2C=Nc3ccccc3C(=O)N2C1 | 4.82 µM | 27.7 µM | 31.4 µM | 27.8 µM | > 33.5 µM | 18 µM | 21 µM | 24.3 µM | – | 27 µM | 34.4 µM | 7.58 µM
